For one test, the system named is ds6 (DNA, duplex) CGTACG. Description: fluorescence titration, independent equivalent sites. The note with it: Na+ (100 mM NaCl, 10 mM sodium phosphate); buffer not in material.
The subject of test [1] is ds10 (DNA, duplex) AAGAATTCTT
Described as above. The note with it: Na+ (100 mM NaCl, 10 mM sodium phosphate); buffer not in material.

For `Oc1ccc(/C=C/c2cc(O)cc(O)c2)cc1`, the K b entry in the test with ds6 (DNA, duplex) CGTACG is “(1.6±1.4)×10^6 M^-1”; in test [1] it was “(1.6±1.3)×10^6 M^-1”.

In the case of `COc1cc(/C=C/c2ccc(O)cc2)cc(OC)c1`, the K b entry in the test with ds6 (DNA, duplex) CGTACG was “(1.2±0.5)×10^6 M^-1”; in test [1] it was “(1.6±0.9)×10^6 M^-1”.
